Literature values, collected in patent publication US20060198906A1, “Compositions and Method to Increase Serum Levels of HDL cholesterol and Lower the Risk of Cardiovascular Disease” (SAMI LABS LIMITED, priority 2005, published 2006).

Conditions: dose range of 20-80 mg/day, clinical studies

Structure (SMILES): CC(C)c1nc(N(C)S(C)(=O)=O)nc(-c2ccc(F)cc2)c1/C=C/[C@@H](O)C[C@@H](O)CC(=O)O [Rosuvastatin]
- reduction of LDL levels: up to 65%
